Where two headings read alike, the source gives them in different places.
Key:
[1] = body weight monitoring in tumor-bearing mice; assay type: in vivo, mouse
[2] = system: DMS-114 human SCLC xenograft; assay: antitumor efficacy, DMS-114 lung cancer xenograft in NMRI nu/nu mice; conditions: for T/C volume: rogaratinib 50 mg/kg BID p.o., docetaxel 30 mg/kg Q7D i.v., carboplatin 80 mg/kg Q7D / paclitaxel 24 mg/kg Q7D i.p., 10 days
[3] = system: LU299 human lung cancer PDX; assay: antitumor efficacy, patient-derived LU299 lung cancer xenograft in nu/nu mice; conditions: 33 days
LXFL1121 human NSCLC PDX = assay: antitumor efficacy, patient-derived LXFL1121 NSCLC xenograft in NMRI nu/nu mice
[4] = system: FGFR1-amplified squamous NSCLC; conditions: initial clinical results; cited from earlier work
VEGFR3 [5] = molecular target: T1, VEGFR3 (Homo sapiens, UniProt P35916); assay: kinase inhibition assay; assay type: biochemical
T1 sequence (P35916 25-1363): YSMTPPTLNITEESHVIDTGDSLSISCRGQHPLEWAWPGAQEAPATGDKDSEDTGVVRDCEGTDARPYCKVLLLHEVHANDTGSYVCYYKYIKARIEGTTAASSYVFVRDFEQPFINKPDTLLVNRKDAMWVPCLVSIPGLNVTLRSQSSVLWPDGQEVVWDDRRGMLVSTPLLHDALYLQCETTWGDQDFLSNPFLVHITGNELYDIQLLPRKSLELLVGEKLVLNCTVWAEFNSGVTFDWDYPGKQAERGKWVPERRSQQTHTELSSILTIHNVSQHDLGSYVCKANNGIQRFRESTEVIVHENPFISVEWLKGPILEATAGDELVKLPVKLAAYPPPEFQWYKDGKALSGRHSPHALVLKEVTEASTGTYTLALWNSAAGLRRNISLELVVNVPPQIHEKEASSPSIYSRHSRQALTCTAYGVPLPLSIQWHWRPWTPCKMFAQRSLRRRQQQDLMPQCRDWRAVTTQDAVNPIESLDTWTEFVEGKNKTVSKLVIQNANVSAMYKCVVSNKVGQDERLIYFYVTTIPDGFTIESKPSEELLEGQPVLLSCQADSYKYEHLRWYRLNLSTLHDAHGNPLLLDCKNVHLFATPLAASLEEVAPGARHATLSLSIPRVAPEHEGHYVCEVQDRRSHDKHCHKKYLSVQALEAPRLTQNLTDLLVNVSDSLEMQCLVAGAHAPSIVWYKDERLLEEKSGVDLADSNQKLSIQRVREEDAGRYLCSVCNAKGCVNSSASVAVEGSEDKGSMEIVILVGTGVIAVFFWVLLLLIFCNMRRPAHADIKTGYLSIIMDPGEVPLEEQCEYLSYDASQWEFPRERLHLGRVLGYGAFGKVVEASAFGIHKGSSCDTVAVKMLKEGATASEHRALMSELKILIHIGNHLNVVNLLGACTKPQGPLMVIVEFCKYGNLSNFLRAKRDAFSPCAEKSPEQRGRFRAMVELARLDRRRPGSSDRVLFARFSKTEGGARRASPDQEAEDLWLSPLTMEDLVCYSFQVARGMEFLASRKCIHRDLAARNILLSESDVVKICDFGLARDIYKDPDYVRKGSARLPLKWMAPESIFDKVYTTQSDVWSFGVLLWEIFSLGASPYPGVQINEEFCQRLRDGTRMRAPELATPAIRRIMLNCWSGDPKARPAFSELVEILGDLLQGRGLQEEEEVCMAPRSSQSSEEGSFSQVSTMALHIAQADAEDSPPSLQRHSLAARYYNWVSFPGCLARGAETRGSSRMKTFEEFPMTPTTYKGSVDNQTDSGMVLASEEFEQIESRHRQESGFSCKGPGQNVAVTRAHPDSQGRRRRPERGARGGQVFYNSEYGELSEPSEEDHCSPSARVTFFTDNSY

C51 colon tumors [6] = assay: antitumor efficacy, syngeneic C51 colon cancer model in BALB/cJ mice; conditions: for partial response (PR) rate (RECIST): 2/9 mice
VEGFR3 [7] = molecular target: T1, VEGFR3; assay: KINOMEscan competition binding
[8] = system: pERK1/2 (T202/Y204,T185/Y187) in DMS-114 cells; assay: FGF2-induced ERK1/2 phosphorylation, MSD-ELISA; assay type: cell-based; conditions: Homo sapiens, DMS-114, read-out: IC50 pERK1/2 (T202/Y204,T185/Y187)
[9] = system: p-FGFR2 and p-ERK1/2 in NCI-H716 tumors; assay: PK/PD, phosphorylation of FGFR2 and ERK1/2 in NCI-H716 tumor tissue; assay type: in vivo, mouse
p-ERK1/2 in RT-112 cells = assay: Western blot, ERK1/2 phosphorylation; assay type: cell-based, human; conditions: RT-112, 0–10,000 nM
[10] = maximally tolerated dose in Balb/cJ mice; assay type: in vivo, mouse
[11] = system: p-ERK1/2 in UM-UC-3 cells; assay: Western blot, ERK1/2 phosphorylation; assay type: cell-based, human; conditions: UM-UC-3, 0–10,000 nM
VEGFR1 = VEGFR1 (Homo sapiens, UniProt P17948); assay: KINOMEscan competition binding
VEGFR1, sequence (P17948 27-1338): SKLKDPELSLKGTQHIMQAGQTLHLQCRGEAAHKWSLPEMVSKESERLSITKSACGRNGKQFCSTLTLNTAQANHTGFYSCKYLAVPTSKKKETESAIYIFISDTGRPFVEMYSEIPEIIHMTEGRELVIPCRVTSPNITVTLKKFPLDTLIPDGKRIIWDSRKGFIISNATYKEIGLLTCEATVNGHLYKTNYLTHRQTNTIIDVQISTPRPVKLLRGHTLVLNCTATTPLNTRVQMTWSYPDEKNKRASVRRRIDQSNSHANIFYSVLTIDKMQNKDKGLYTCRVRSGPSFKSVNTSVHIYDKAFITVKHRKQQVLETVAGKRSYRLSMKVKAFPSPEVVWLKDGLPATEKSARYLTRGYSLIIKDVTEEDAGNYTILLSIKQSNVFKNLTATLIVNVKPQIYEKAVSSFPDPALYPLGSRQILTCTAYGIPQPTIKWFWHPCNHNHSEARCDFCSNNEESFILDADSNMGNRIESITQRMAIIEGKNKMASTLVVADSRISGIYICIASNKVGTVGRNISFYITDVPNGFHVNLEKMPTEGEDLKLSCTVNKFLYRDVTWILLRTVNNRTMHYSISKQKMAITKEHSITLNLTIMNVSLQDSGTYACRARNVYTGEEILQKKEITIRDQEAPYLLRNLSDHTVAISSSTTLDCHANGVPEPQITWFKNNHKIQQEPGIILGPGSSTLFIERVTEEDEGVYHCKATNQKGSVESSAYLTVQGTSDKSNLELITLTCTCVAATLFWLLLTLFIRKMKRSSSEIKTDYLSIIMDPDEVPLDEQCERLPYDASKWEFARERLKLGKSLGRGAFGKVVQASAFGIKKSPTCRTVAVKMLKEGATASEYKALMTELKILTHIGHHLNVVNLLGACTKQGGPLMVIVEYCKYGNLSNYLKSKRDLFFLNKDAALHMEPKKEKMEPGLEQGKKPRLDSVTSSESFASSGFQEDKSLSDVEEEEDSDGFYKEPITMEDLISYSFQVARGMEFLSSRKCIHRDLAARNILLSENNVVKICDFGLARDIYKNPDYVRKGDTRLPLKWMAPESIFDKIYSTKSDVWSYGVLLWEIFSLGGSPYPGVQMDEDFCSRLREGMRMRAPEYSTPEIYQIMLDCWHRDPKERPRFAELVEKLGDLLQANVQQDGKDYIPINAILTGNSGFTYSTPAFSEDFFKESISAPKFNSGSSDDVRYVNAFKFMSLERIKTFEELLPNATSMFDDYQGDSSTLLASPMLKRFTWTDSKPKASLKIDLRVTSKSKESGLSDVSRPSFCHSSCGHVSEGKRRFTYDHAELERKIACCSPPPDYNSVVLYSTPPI

C51 colon tumors [12] = assay: antitumor efficacy, C51 colon cancer model in nude rats
[13] = plasma pharmacokinetics in NCI-H716 tumor-bearing NMRI nu/nu mice
77 non-kinase targets = assay: PanLabs Safety screen, whole panel; conditions: 10 µM
[14] = body weight monitoring in tumor-bearing rats; assay type: in vivo, rat; conditions: C51 model, nude rats, monotherapy
[15] = system: pERK1/2 (T202/Y204,T185/Y187) in MFM-223 cells; assay: FGF2-induced ERK1/2 phosphorylation, MSD-ELISA; assay type: cell-based; conditions: Homo sapiens, MFM-223, read-out: IC50 pERK1/2 (T202/Y204,T185/Y187)
[16] = system: p-ERK1/2 in NCI-H1581 cells; assay: Western blot, ERK1/2 phosphorylation; assay type: cell-based, human; conditions: NCI-H1581, 0–10,000 nM
[17] = system: p-FGFR4 in MDA-MB-453 cells; assay: Western blot, FGFR4 auto-phosphorylation; assay type: cell-based, human; conditions: MDA-MB-453, 0–1,000 nM, 2 h
VEGF-A-stimulated HUVEC = assay: HUVEC growth assay, VEGF-A-stimulated; assay type: cell-based, human; conditions: for IC50: Homo sapiens, 72 h
TIE2 = TIE2 (Homo sapiens, UniProt Q02763); assay: kinase inhibition assay; assay type: biochemical
TIE2, sequence (Q02763 23-1124): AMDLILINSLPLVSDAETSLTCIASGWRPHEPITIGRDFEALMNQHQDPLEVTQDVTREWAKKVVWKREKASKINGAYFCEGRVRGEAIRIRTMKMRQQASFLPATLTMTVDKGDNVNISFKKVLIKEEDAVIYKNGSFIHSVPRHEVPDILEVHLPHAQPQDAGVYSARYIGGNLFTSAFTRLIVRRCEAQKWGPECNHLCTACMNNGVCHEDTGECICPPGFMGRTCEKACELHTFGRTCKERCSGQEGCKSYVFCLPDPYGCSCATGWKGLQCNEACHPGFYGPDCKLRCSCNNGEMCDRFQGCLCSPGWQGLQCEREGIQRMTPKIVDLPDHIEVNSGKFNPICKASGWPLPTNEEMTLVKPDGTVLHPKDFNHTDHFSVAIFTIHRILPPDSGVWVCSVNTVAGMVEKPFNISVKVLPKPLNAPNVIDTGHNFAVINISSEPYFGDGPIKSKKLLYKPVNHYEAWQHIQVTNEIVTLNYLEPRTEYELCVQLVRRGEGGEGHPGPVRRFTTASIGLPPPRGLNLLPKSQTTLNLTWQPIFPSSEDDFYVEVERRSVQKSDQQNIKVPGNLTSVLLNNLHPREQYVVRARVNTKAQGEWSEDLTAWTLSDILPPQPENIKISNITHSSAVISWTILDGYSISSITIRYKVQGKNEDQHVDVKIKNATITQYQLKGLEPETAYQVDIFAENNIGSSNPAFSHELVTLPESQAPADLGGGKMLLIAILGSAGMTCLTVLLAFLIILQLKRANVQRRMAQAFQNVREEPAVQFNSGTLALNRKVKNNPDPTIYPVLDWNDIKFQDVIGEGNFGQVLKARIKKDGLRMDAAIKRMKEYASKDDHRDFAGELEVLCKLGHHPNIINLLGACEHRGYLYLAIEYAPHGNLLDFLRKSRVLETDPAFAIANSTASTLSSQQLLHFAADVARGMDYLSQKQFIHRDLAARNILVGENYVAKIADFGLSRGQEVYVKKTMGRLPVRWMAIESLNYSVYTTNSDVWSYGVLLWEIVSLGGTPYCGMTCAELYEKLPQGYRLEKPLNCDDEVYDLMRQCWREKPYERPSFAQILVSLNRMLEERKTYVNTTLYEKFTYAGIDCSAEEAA

[18] = system: pERK1/2 (T202/Y204,T185/Y187) in C51 cells; assay: ERK1/2 phosphorylation, MSD-ELISA; assay type: cell-based; conditions: Mus musculus, read-out: IC50 pERK1/2 (T202/Y204,T185/Y187)
FGF2-stimulated HUVEC = assay: HUVEC growth assay, FGF2-stimulated; assay type: cell-based; conditions: Homo sapiens, 72 h, read-out: IC50 inhibition of FGF2-stimulated growth
FGFR2 [19] = molecular target: T2, FGFR2 (Homo sapiens, UniProt P21802); assay: KINOMEscan competition binding
T2 sequence (P21802 481-770 limits assumed): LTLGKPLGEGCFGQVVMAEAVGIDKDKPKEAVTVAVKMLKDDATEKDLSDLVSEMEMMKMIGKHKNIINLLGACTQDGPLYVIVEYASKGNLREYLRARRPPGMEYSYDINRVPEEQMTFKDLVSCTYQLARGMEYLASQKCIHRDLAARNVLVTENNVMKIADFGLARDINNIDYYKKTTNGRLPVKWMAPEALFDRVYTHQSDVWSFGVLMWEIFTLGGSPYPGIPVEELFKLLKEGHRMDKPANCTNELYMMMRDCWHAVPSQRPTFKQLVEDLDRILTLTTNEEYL

468 kinase targets = assay: KINOMEscan profiling, kinase panel; assay type: binding; conditions: of 403 non-mutant kinases
CSF1R [20] = molecular target: T3, CSF1R (Homo sapiens, UniProt P07333); assay: KINOMEscan competition binding; conditions: 100 nM rogaratinib
T3 sequence (P07333 20-972): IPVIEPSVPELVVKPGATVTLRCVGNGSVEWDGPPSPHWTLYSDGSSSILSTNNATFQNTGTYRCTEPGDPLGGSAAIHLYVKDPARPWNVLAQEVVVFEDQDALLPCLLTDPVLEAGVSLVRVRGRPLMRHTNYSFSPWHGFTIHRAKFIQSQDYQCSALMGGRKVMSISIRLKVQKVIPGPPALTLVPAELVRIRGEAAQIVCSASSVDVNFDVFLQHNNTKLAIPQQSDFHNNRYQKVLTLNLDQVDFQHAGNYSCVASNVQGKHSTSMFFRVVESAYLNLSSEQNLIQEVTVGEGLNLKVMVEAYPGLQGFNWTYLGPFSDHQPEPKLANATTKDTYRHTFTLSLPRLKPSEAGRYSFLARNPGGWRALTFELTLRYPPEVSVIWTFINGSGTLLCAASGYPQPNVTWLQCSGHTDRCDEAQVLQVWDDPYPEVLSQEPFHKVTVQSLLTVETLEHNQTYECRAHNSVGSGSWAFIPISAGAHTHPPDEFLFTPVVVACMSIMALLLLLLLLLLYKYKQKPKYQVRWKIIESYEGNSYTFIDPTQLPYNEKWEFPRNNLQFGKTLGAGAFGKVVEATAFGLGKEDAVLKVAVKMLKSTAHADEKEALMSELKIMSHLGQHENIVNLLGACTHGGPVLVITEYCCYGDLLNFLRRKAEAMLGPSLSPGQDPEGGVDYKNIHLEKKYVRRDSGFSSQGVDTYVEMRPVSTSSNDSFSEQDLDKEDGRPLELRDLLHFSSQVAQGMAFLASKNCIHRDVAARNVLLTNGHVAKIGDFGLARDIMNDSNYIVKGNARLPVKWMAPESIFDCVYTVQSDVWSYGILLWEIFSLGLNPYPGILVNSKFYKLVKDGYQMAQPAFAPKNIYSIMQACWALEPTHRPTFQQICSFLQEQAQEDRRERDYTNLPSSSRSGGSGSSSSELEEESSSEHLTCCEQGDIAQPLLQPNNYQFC

[21] = system: p-ERK1/2 in NCI-H520 cells; assay: Western blot, ERK1/2 phosphorylation; assay type: cell-based, human; conditions: NCI-H520, 0–10,000 nM
CSF1R [22] = molecular target: T3, CSF1R; assay: kinase inhibition assay; assay type: biochemical
[23] = system: p-FGFR2 in NCI-H716 cells; assay: Western blot, FGFR2 auto-phosphorylation; assay type: cell-based, human; conditions: NCI-H716, 100 nM
[24] = system: NCI-H716 human colon cancer xenograft; assay: antitumor efficacy, NCI-H716 colorectal xenograft in NMRI nu/nu mice; conditions: 50 mg/kg BID; 1/8 mice
[25] = system: p-ERK1/2 in MDA-MB-453 cells; assay: Western blot, ERK1/2 phosphorylation; assay type: cell-based, human; conditions: MDA-MB-453, 0–1,000 nM, 2 h
FGFR2 [26] = molecular target: T2, FGFR2; assay: radiometric kinase activity assay; assay type: biochemical
[27] = system: p-ERK1/2 in NCI-H716 cells; assay: Western blot, ERK1/2 phosphorylation; assay type: cell-based, human; conditions: NCI-H716, 100 nM

SMILES: CC(=O)O[C@@]12CO[C@@H]1C[C@H](O)[C@@]1(C)C(=O)[C@H](O)C3=C(C)[C@@H](OC(=O)[C@H](O)[C@@H](NC(=O)OC(C)(C)C)c4ccccc4)C[C@@](O)([C@@H](OC(=O)c4ccccc4)[C@H]21)C3(C)C [docetaxel, reference compound]
- maximum body weight loss ([1]; DMS-114 model): 2.4%
- maximum body weight losses ([1]; LU299 model): 14.1%
- T/C volume [2]: 0.27
- PR rate ([2]; rogaratinib 50 mg/kg BID, docetaxel 30 mg/kg Q7D, carboplatin 80 mg/kg Q7D / paclitaxel 24 mg/kg Q7D): 40%
- PRs (RECIST) ([3]; rogaratinib 50 mg/kg BID, docetaxel Q7D i.v., n=10): 60%
- tumor response post-treatment (LXFL1121 human NSCLC PDX; drug-free observation period after treatment): tumor regrowth was observed

SMILES: CCN1CCN(c2ccc(Nc3cc(N(C)C(=O)Nc4c(Cl)c(OC)cc(OC)c4Cl)ncn3)cc2)CC1 [BGJ398, 3‐(2,6‐dichloro‐3,5‐dimethoxy‐phenyl)‐1‐{6‐[4‐(4‐ethyl‐piperazin‐1‐yl)‐phenylamino]‐pyrimidin‐4‐yl}‐1‐methyl‐urea]
- response rate [4]: 11%

SMILES: COCc1c(-c2cc3cc(C)cc(OC)c3s2)c2c(N)ncnn2c1CN1CCNC(=O)C1 [rogaratinib, 4‐{[4‐amino‐6‐(methoxymethyl)‐5‐(7‐methoxy‐5‐methyl‐1‐benzothiophen‐2‐yl)pyrrolo[2,1‐f][1,2,4]triazin‐7‐yl]methyl}piperazin‐2‐one]
- IC50 (VEGFR3 [5]): 130 nM
- antitumor efficacy (C51 colon tumors [6]; 25 mg/kg QD p.o., 13 days): not efficacious
- partial response (PR) rate (RECIST) (C51 colon tumors [6]; 50 mg/kg QD): 22%
- stable disease (SD) rate (RECIST) (C51 colon tumors [6]; 75 mg/kg QD, 1/9 mice): 11%
- partial response (PR) rate (RECIST) (C51 colon tumors [6]; 75 mg/kg QD): 22%
- body weight losses ([1]; C51 model, mice, monotherapy): ≤ 10%
- maximum body weight loss ([1]; DMS-114 model): 5%
- body weight losses ([1]; LU299 PDX model): ≤ 10%
- body weight losses ([1]; LXFL1121 PDX model): ≤ 10%
- maximum body weight loss ([1]; NCI-H716 model): 5.2%
- Kd (VEGFR3 [7]): 150 nM
- IC50 [8]: 20 nM
- FGFR2 and ERK1/2 phosphorylation levels in tumor ([9]; 24-h time point after single dose 35, 50 or 65 mg/kg): returned to levels similar to the vehicle control
- FGFR2 and ERK1/2 phosphorylation levels in tumor ([9]; for at least five hours after single dose 35, 50 or 65 mg/kg): strong inhibition of FGFR signaling
- inhibition of ERK1/2 phosphorylation (p-ERK1/2 in RT-112 cells): potent inhibition
- maximally tolerated dose ([10]; BID): 50 mg/kg
- maximally tolerated dose ([10]; QD): 75 mg/kg
- inhibition of ERK1/2 phosphorylation [11]: less sensitive
- Kd (VEGFR1): 190 nM
- binding affinity to VEGFRs lower compared to FGFR1 (VEGFR1; VEGFR1, VEGFR3 vs FGFR1 Kd): about 100 fold
- complete responses (CR) (RECIST) (C51 colon tumors [12]; 10 mg/kg QD, 2/8): 25%
- stable disease (SD) (RECIST) (C51 colon tumors [12]; 50 mg/kg QD, 1/8): 12.5%
- complete responses (CR) (RECIST) (C51 colon tumors [12]; 50 mg/kg QD, 3/8): 37.5%
- unbound Cmax concentration in plasma ([13]; single dose 35 mg/kg after 10-day drug-free period): 123 nM
- unbound Cmax concentration in plasma ([13]; single dose 50 mg/kg after 10-day drug-free period): 294 nM
- unbound Cmax concentration in plasma ([13]; single dose 65 mg/kg after 10-day drug-free period): 357 nM
- T/C volume [2]: 0.34
- number of significant hits in a set of 77 non-kinase targets (77 non-kinase targets): 3
- body weight losses [14]: ≤ 10%
- IC50 [15]: 11 nM
- inhibition of ERK1/2 phosphorylation [16]: potent inhibition
- auto-phosphorylation of FGFR4 [17]: inhibited auto‐phosphorylation of FGFR4
- IC50 VEGF-A-stimulated growth higher than FGF2-stimulated growth (VEGF-A-stimulated HUVEC; HUVEC): 28 fold
- IC50 (VEGF-A-stimulated HUVEC; read-out: −logIC50 inhibition of VEGF-A-stimulated growth (converted)): 501 nM
- IC50 (VEGF-A-stimulated HUVEC; HUVEC, read-out: IC50 inhibition of VEGF-A-stimulated growth): 453 nM
- IC50 (TIE2): 1300 nM
- IC50 [18]: 280 nM
- T/C volume ([3]; 50 mg/kg BID p.o.): 0.33
- IC50 (FGF2-stimulated HUVEC): 16 nM
- Kd (FGFR2 [19]): 5 nM
- number of additional kinases besides FGFR1-4 with competition binding >65% (468 kinase targets; 100 nM rogaratinib): 4
- number of additional kinases besides FGFR1-4 with competition binding >65% (468 kinase targets; 1 μM rogaratinib): 18
- T/C volume (LXFL1121 human NSCLC PDX; 50 mg/kg BID p.o., 22 days): 0.26
- inhibition of binding to CSF1R in KINOMEscan profiling (CSF1R [20]): strong inhibition
- inhibition of ERK1/2 phosphorylation [21]: less sensitive
- IC50 (CSF1R [22]): 166 nM
- auto-phosphorylation of FGFR2 [23]: effectively inhibited
- partial responses (PR) [24]: 12.5%
- ERK1/2 phosphorylation [25]: preventing ERK1/2 phosphorylation in the same concentration range
- IC50 (FGFR2 [26]): < 1 nM
- phosphorylation of ERK1/2 [27]: effectively inhibited
